Results published in patent publication US6706663B2, “Herbicidal 3-heterocyclic substituted benzisothiazole and benzisoxazole compounds” (Wyeth, priority 2000, dated 2004).

Experiments:
ZEAMX (Corn, Field) [1] = assay: Preemergence herbicidal evaluation; type: in vivo, Zea mays, L.; conditions: rated 4-5 weeks after treatment
CYPIR (Cyperus iria) = assay: Flooded paddy, preemergence weed control; type: in vivo; conditions: rated 3-4 weeks after treatment, 0-9 rating scale
How it was run: (§1)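 Under paddy conditions, seeds or vegetative propagules go into the top 0.5 cm of silt loam; the soil is then flooded to 1.5–3 cm and kept so. Treated pots stay in a greenhouse; response is rated 0-9 visually versus control.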

[2] = system: ECHCG (Echinochloa crus-galli); assay: Postemergence herbicidal evaluation; type: in vivo, (L.) Beau; conditions: postemergence
How it was run: (§2)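 Seedlings grown for about two weeks were sprayed postemergence and then kept under standard greenhouse care. Injury was rated visually 4–5 weeks after treatment on a 0–9 scale against untreated controls, and ratings from repeat tests were averaged.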

[3] = system: ABUTH (Abutilon theophrasti); assay: Postemergence herbicidal evaluation; type: in vivo, Medic.; conditions: postemergence
How it was run: as §2

[4] = system: ECHORC (Echinochloa oryzoides); assay: Flooded paddy, preemergence weed control; type: in vivo, Echinochloa oryzoides (Ard.) Fritsch.; conditions: rated 3-4 weeks after treatment, 0-9 rating scale
How it was run: as §1

[5] = system: IPOHE (Ipomoea hederacea); assay: Postemergence herbicidal evaluation; type: in vivo, (L.) Jacq.; conditions: postemergence
How it was run: as §2

GALAP (Galium aparine) [6] = assay: Preemergence herbicidal evaluation; type: in vivo; conditions: rated 4-5 weeks after treatment
How it was run: (§3)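 Each species was sown separately in potting soil over roughly one inch of soil, and the surface sprayed with compound dissolved in aqueous acetone. Assessment used a 0–9 visual scale against a control after four to five weeks.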

[7] = system: CASOB (Cassia obtusifolia); assay: Postemergence herbicidal evaluation; type: in vivo, L.; conditions: postemergence
How it was run: as §2

[8] = system: CHEAL (Chenopodium album); assay: Postemergence herbicidal evaluation; type: in vivo, L.; conditions: postemergence
How it was run: as §2

[9] = system: AMBEL (Ambrosia artemisifolia); assay: Postemergence herbicidal evaluation; type: in vivo, L.; conditions: postemergence
How it was run: as §2

ZEAMX (Corn, Field) [10] = assay: Postemergence herbicidal evaluation; type: in vivo, Zea mays, L.; conditions: postemergence
How it was run: as §2

ORYSAT (Rice, Tebonnet) = assay: Preemergence herbicidal evaluation; type: in vivo, Oryza sativa, (L.) Tebonnet; conditions: rated 4-5 weeks after treatment
[11] = system: GLXMAW (Soybean, Williams); assay: Preemergence herbicidal evaluation; type: in vivo, Glycine max, (L.) Merr. cv Williams; conditions: rated 4-5 weeks after treatment
[12] = system: TRZAWR (Wheat, Winter, cv Riband); assay: Preemergence herbicidal evaluation; type: in vivo, Triticum aestivum; conditions: rated 4-5 weeks after treatment
How it was run: as §3

[13] = system: CASOB (Cassia obtusifolia); assay: Preemergence herbicidal evaluation; type: in vivo, L.; conditions: rated 4-5 weeks after treatment
How it was run: as §3

[14] = system: CHEAL (Chenopodium album); assay: Preemergence herbicidal evaluation; type: in vivo, L.; conditions: rated 4-5 weeks after treatment
How it was run: as §3

[15] = system: AMBEL (Ambrosia artemisifolia); assay: Preemergence herbicidal evaluation; type: in vivo, L.; conditions: rated 4-5 weeks after treatment
How it was run: as §3

GALAP (Galium aparine) [16] = assay: Postemergence herbicidal evaluation; type: in vivo; conditions: postemergence
How it was run: as §2

[17] = system: IPOHE (Ipomoea hederacea); assay: Preemergence herbicidal evaluation; type: in vivo, (L.) Jacq.; conditions: rated 4-5 weeks after treatment
[18] = system: GLXMAW (Soybean, Williams); assay: Postemergence herbicidal evaluation; type: in vivo, Glycine max, (L.) Merr. cv Williams; conditions: postemergence
How it was run: as §2

[19] = system: SAGPY (Sagittaria pygmaea); assay: Flooded paddy, preemergence weed control; type: in vivo, L.; conditions: rated 3-4 weeks after treatment, 0-9 rating scale
How it was run: as §1

SMILES: Cn1c(C(F)(F)F)cc(=O)n(-c2ccc3snc(-c4ccco4)c3c2)c1=O [Compound 60, 3-[3-(2-furyl)-1,2-benzisothiazol-5-yl]-1-methyl-6-(trifluoromethyl)uracil]
- Preemergence herbicidal rating ZEAMX (ZEAMX (Corn, Field) [1]; Rate 0.0620 kg/ha): 3.0
- Preemergence herbicidal rating ZEAMX (ZEAMX (Corn, Field) [1]; Rate 0.1250 kg/ha): 5.0
- Preemergence herbicidal rating ZEAMX (ZEAMX (Corn, Field) [1]; Rate 0.2500 kg/ha): 6.0
- herbicidal rating, CYPIR (CYPIR (Cyperus iria); rate 0.0080 kg/ha): 0.0
- herbicidal rating, CYPIR (CYPIR (Cyperus iria); rate 0.0320 kg/ha): 6.0
- herbicidal rating, CYPIR (CYPIR (Cyperus iria); rate 0.1250 kg/ha): 7.0
- ECHCG herbicidal rating ([2]; rate 0.0320 kg/ha): 2.0
- ECHCG herbicidal rating ([2]; rate 0.0620 kg/ha): 2.0
- ABUTH herbicidal rating ([3]; rate 0.0320 kg/ha): 9.0
- ABUTH herbicidal rating ([3]; rate 0.0620 kg/ha): 9.0
- herbicidal rating, ECHORC ([4]; rate 0.0080 kg/ha): 1.5
- herbicidal rating, ECHORC ([4]; rate 0.0320 kg/ha): 4.0
- herbicidal rating, ECHORC ([4]; rate 0.1250 kg/ha): 7.0
- IPOHE herbicidal rating ([5]; rate 0.0320 kg/ha): 9.0
- IPOHE herbicidal rating ([5]; rate 0.0620 kg/ha): 9.0
- Preemergence herbicidal rating GALAP (GALAP (Galium aparine) [6]; Rate 0.0620 kg/ha): 6.0
- Preemergence herbicidal rating GALAP (GALAP (Galium aparine) [6]; Rate 0.1250 kg/ha): 7.0
- Preemergence herbicidal rating GALAP (GALAP (Galium aparine) [6]; Rate 0.2500 kg/ha): 9.0
- CASOB herbicidal rating ([7]; rate 0.0320 kg/ha): 1.0
- CASOB herbicidal rating ([7]; rate 0.0620 kg/ha): 4.0
- CHEAL herbicidal rating ([8]; rate 0.0320 kg/ha): 6.0
- CHEAL herbicidal rating ([8]; rate 0.0620 kg/ha): 5.0
- AMBEL herbicidal rating ([9]; rate 0.0320 kg/ha): 9.0
- AMBEL herbicidal rating ([9]; rate 0.0620 kg/ha): 9.0
- ZEAMX herbicidal rating (ZEAMX (Corn, Field) [10]; rate 0.0320 kg/ha): 5.5
- ZEAMX herbicidal rating (ZEAMX (Corn, Field) [10]; rate 0.0620 kg/ha): 6.0
- Preemergence herbicidal rating ORYSAT (ORYSAT (Rice, Tebonnet); Rate 0.0620 kg/ha): 1.0
- Preemergence herbicidal rating ORYSAT (ORYSAT (Rice, Tebonnet); Rate 0.1250 kg/ha): 4.0
- Preemergence herbicidal rating ORYSAT (ORYSAT (Rice, Tebonnet); Rate 0.2500 kg/ha): 6.0
- Preemergence herbicidal rating GLXMAW ([11]; Rate 0.0620 kg/ha): 1.0
- Preemergence herbicidal rating GLXMAW ([11]; Rate 0.1250 kg/ha): 3.0
- Preemergence herbicidal rating GLXMAW ([11]; Rate 0.2500 kg/ha): 4.0
- Preemergence herbicidal rating TRZAWR ([12]; Rate 0.0620 kg/ha): 1.0
- Preemergence herbicidal rating TRZAWR ([12]; Rate 0.1250 kg/ha): 4.0
- Preemergence herbicidal rating TRZAWR ([12]; Rate 0.2500 kg/ha): 6.0
- Preemergence herbicidal rating CASOB ([13]; Rate 0.0620 kg/ha): 0.0
- Preemergence herbicidal rating CASOB ([13]; Rate 0.1250 kg/ha): 0.0
- Preemergence herbicidal rating CASOB ([13]; Rate 0.2500 kg/ha): 0.0
- Preemergence herbicidal rating CHEAL ([14]; Rate 0.0620 kg/ha): 7.0
- Preemergence herbicidal rating CHEAL ([14]; Rate 0.1250 kg/ha): 9.0
- Preemergence herbicidal rating CHEAL ([14]; Rate 0.2500 kg/ha): 9.0
- Preemergence herbicidal rating AMBEL ([15]; Rate 0.0620 kg/ha): 0.0
- Preemergence herbicidal rating AMBEL ([15]; Rate 0.1250 kg/ha): 5.0
- Preemergence herbicidal rating AMBEL ([15]; Rate 0.2500 kg/ha): 9.0
- GALAP herbicidal rating (GALAP (Galium aparine) [16]; rate 0.0320 kg/ha): 7.0
- GALAP herbicidal rating (GALAP (Galium aparine) [16]; rate 0.0620 kg/ha): 9.0
- Preemergence herbicidal rating IPOHE ([17]; Rate 0.0620 kg/ha): 0.0
- Preemergence herbicidal rating IPOHE ([17]; Rate 0.1250 kg/ha): 0.0
- Preemergence herbicidal rating IPOHE ([17]; Rate 0.2500 kg/ha): 9.0
- GLXMAW herbicidal rating ([18]; rate 0.0320 kg/ha): 5.0
- GLXMAW herbicidal rating ([18]; rate 0.0620 kg/ha): 7.0
- herbicidal rating, SAGPY ([19]; rate 0.0080 kg/ha): 0.0
- herbicidal rating, SAGPY ([19]; rate 0.0320 kg/ha): 0.0
- herbicidal rating, SAGPY ([19]; rate 0.1250 kg/ha): 2.5

SMILES: Cn1c(C(F)(F)F)cc(=O)n(-c2ccc3snc(C4=NCCO4)c3c2)c1=O [Compound 75, 1-methyl-3-[3(2-oxazolin-2-yl)-1,2-benzisothiazol-5-yl]-6-(trifluoromethyl)uracil]
- Preemergence herbicidal rating ZEAMX (ZEAMX (Corn, Field) [1]; Rate 0.0620 kg/ha): 1.0
- Preemergence herbicidal rating ZEAMX (ZEAMX (Corn, Field) [1]; Rate 0.1250 kg/ha): 2.0
- Preemergence herbicidal rating ZEAMX (ZEAMX (Corn, Field) [1]; Rate 0.2500 kg/ha): 3.0
- herbicidal rating, CYPIR (CYPIR (Cyperus iria); rate 0.0080 kg/ha): 0.0
- herbicidal rating, CYPIR (CYPIR (Cyperus iria); rate 0.0320 kg/ha): 7.0
- herbicidal rating, CYPIR (CYPIR (Cyperus iria); rate 0.1250 kg/ha): 9.0
- ECHCG herbicidal rating ([2]; rate 0.0320 kg/ha): 3.0
- ECHCG herbicidal rating ([2]; rate 0.0620 kg/ha): 3.0
- ABUTH herbicidal rating ([3]; rate 0.0320 kg/ha): 9.0
- ABUTH herbicidal rating ([3]; rate 0.0620 kg/ha): 9.0
- herbicidal rating, ECHORC ([4]; rate 0.0080 kg/ha): 1.5
- herbicidal rating, ECHORC ([4]; rate 0.0320 kg/ha): 4.0
- herbicidal rating, ECHORC ([4]; rate 0.1250 kg/ha): 8.5
- IPOHE herbicidal rating ([5]; rate 0.0320 kg/ha): 9.0
- IPOHE herbicidal rating ([5]; rate 0.0620 kg/ha): 9.0
- Preemergence herbicidal rating GALAP (GALAP (Galium aparine) [6]; Rate 0.0620 kg/ha): 5.0
- Preemergence herbicidal rating GALAP (GALAP (Galium aparine) [6]; Rate 0.1250 kg/ha): 7.0
- Preemergence herbicidal rating GALAP (GALAP (Galium aparine) [6]; Rate 0.2500 kg/ha): 9.0
- CASOB herbicidal rating ([7]; rate 0.0320 kg/ha): 2.0
- CASOB herbicidal rating ([7]; rate 0.0620 kg/ha): 2.0
- CHEAL herbicidal rating ([8]; rate 0.0320 kg/ha): 7.0
- CHEAL herbicidal rating ([8]; rate 0.0620 kg/ha): 7.0
- AMBEL herbicidal rating ([9]; rate 0.0320 kg/ha): 9.0
- AMBEL herbicidal rating ([9]; rate 0.0620 kg/ha): 9.0
- ZEAMX herbicidal rating (ZEAMX (Corn, Field) [10]; rate 0.0320 kg/ha): 4.5
- ZEAMX herbicidal rating (ZEAMX (Corn, Field) [10]; rate 0.0620 kg/ha): 5.0
- Preemergence herbicidal rating ORYSAT (ORYSAT (Rice, Tebonnet); Rate 0.0620 kg/ha): 0.0
- Preemergence herbicidal rating ORYSAT (ORYSAT (Rice, Tebonnet); Rate 0.1250 kg/ha): 2.0
- Preemergence herbicidal rating ORYSAT (ORYSAT (Rice, Tebonnet); Rate 0.2500 kg/ha): 7.0
- Preemergence herbicidal rating GLXMAW ([11]; Rate 0.0620 kg/ha): 0.0
- Preemergence herbicidal rating GLXMAW ([11]; Rate 0.1250 kg/ha): 1.0
- Preemergence herbicidal rating GLXMAW ([11]; Rate 0.2500 kg/ha): 4.0
- Preemergence herbicidal rating TRZAWR ([12]; Rate 0.0620 kg/ha): 0.0
- Preemergence herbicidal rating TRZAWR ([12]; Rate 0.1250 kg/ha): 2.0
- Preemergence herbicidal rating TRZAWR ([12]; Rate 0.2500 kg/ha): 7.0
- Preemergence herbicidal rating CASOB ([13]; Rate 0.0620 kg/ha): 0.0
- Preemergence herbicidal rating CASOB ([13]; Rate 0.1250 kg/ha): 1.0
- Preemergence herbicidal rating CASOB ([13]; Rate 0.2500 kg/ha): 1.0
- Preemergence herbicidal rating CHEAL ([14]; Rate 0.0620 kg/ha): 9.0
- Preemergence herbicidal rating CHEAL ([14]; Rate 0.1250 kg/ha): 6.0
- Preemergence herbicidal rating CHEAL ([14]; Rate 0.2500 kg/ha): 9.0
- Preemergence herbicidal rating AMBEL ([15]; Rate 0.0620 kg/ha): 1.0
- Preemergence herbicidal rating AMBEL ([15]; Rate 0.1250 kg/ha): 3.0
- Preemergence herbicidal rating AMBEL ([15]; Rate 0.2500 kg/ha): 7.0
- GALAP herbicidal rating (GALAP (Galium aparine) [16]; rate 0.0320 kg/ha): 5.0
- GALAP herbicidal rating (GALAP (Galium aparine) [16]; rate 0.0620 kg/ha): 7.0
- Preemergence herbicidal rating IPOHE ([17]; Rate 0.0620 kg/ha): 0.0
- Preemergence herbicidal rating IPOHE ([17]; Rate 0.1250 kg/ha): 4.0
- Preemergence herbicidal rating IPOHE ([17]; Rate 0.2500 kg/ha): 7.0
- GLXMAW herbicidal rating ([18]; rate 0.0320 kg/ha): 5.5
- GLXMAW herbicidal rating ([18]; rate 0.0620 kg/ha): 7.0
- herbicidal rating, SAGPY ([19]; rate 0.0080 kg/ha): 0.0
- herbicidal rating, SAGPY ([19]; rate 0.0320 kg/ha): 4.5
- herbicidal rating, SAGPY ([19]; rate 0.1250 kg/ha): 9.0
